How the values were obtained:
PCSK9 = PCSK9 (Homo sapiens, UniProt Q8NBP7, G670E/V474I); experiment: biochemical
[1] = biological target: T1, potassium ion channel hERG (human Ether-á-go-go-Related Gene) (Homo sapiens, UniProt Q12809); experiment: Assay 5 - hERG assay (SyncroPatch 384PE patch clamp, CHO cells); assay type: cell-based; conditions: geometric mean; CHO cells over-expressing hERG; read-out: Assay 5 (hERG Hu CHO IF EPh CR-Syncro) GMean IC50
T1 construct: expressed in transfected cells; host or cells: Chinese hamster ovary K1 (CHO)
T1 sequence (Q12809 whole entry): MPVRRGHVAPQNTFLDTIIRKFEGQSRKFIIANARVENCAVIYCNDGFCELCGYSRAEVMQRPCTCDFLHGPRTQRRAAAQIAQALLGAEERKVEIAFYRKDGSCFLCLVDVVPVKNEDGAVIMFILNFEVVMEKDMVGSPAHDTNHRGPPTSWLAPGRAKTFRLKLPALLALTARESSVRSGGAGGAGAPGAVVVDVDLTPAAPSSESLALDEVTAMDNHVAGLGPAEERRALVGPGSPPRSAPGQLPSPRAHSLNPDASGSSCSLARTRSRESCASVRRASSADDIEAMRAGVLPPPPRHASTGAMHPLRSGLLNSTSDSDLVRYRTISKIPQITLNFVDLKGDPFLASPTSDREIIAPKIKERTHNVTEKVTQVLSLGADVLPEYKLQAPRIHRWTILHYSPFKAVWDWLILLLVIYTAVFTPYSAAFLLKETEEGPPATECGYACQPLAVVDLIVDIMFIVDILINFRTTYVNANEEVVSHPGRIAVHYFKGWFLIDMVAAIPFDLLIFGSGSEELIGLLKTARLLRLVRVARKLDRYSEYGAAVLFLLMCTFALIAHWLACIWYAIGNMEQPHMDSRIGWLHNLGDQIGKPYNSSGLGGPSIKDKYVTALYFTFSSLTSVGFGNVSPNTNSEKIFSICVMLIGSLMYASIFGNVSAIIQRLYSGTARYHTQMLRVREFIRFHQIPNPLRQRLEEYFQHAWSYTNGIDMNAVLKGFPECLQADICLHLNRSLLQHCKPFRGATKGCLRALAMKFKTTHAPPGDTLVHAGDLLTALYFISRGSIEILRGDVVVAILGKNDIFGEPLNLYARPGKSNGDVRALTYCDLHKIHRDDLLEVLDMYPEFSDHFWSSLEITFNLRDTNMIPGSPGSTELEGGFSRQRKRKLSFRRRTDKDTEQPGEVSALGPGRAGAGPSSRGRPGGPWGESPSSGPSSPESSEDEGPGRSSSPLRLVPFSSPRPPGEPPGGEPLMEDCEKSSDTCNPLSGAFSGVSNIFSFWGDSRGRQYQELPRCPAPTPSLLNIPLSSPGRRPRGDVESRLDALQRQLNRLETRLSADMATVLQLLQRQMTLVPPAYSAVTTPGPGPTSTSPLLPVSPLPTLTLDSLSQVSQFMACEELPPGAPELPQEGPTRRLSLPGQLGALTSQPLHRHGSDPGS
How it was run: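 Automated high-throughput patch clamp on CHO-K1 cells overexpressing hERG at room temperature, KF/KCl internal with escin, NMDG-containing external at pH 7.4. Six-point cumulative compound addition, 0.33% DMSO final; wells kept only with seal >30 MΩ, Z′ >0.4 and current >0.2 nA.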

human PCSK9 = biological target: T2, human PCSK9 (Homo sapiens, UniProt Q8NBP7); experiment: Assay 2 - Biophysical human PCSK9 assay (SPR, Biacore); assay type: binding; conditions: geometric mean; SPR at 30° C; read-out: Assay 2 (PCSK9 BIAcore DBA CR) GMean Kd
T2 construct: biotinylated human PCSK9 (31-692)-Avi-His6; His6 (C)
T2 sequence (Q8NBP7 31-692): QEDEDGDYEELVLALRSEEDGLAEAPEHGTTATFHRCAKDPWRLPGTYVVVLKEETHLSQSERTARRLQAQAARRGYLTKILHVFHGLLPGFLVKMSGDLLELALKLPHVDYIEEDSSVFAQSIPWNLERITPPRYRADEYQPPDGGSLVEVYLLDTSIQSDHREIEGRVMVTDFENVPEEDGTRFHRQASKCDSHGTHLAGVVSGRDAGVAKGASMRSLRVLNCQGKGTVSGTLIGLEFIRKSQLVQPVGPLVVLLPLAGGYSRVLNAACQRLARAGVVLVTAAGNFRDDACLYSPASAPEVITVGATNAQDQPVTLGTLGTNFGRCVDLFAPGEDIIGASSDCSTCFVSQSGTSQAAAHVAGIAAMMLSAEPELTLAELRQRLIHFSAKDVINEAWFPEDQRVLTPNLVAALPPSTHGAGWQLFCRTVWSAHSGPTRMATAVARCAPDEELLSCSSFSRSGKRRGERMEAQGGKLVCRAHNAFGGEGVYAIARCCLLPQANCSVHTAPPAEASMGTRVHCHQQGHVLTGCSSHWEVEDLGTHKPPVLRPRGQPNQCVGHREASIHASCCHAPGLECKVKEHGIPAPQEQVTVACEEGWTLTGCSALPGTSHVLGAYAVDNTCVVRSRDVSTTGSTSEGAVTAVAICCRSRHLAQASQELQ
Protocol: Assay 2—Biophysical Human PCSK9 Assay
The SPR binding experiments were performed on a Biacore S200 optical biosensor unit at 30° C. A Series S Sensor Chip SA that is designed to bind biotinylated molecules for interaction analysis in Biacore systems was equilibrated at room temperature prior to use. The running buffer for protein tethering and subsequent ligand binding experiments was 10 mM HEPES pH 7.4, 150 mM NaCl, 0.05% (v/v) Tween 20 pH 7.4.
For the surface tethering of PCSK9, biotinylated human PCSK9 (31-692)-Avi-His6 at a concentration of 0.5 mg/mL was used. Prior to the surface tethering, the surface was exposed to a solution of 50 mM NaOH, 500 mM NaCl via 3 consecutive injections of this solution with a contact time of 60 s and a flowrate of 10 μL min^−1 to remove non-conjugated streptavidin. The PCSK9 protein was diluted to a concentration of 20 μg/mL using running buffer and injected with a contact time of 180-300 s and a flowrate of 10 μL min^−1 over a single flow channel (typically flow channel 2 or flow channel 4) with the aim to achieve protein capture levels of >5000 response units (RU). Remaining biotin binding sites were blocked via 2 consecutive injections of a 10 μM D-biotin solution in running buffer with a contact time of 60 s and a flowrate of 10 μL min^−1 over all flow-channels. Flow-channels 1 and 3 typically served as a reference surface throughout the subsequent binding experiments.
The binding experiments were all performed at a flow rate of 30 PL min^−1 and by employing the method of single-cycle kinetics. This approach involves the sequential injection of a compound concentration series without regeneration steps. A contact time between 90-150 s was selected, which was followed by a 40 min dissociation phase to allow for a proper estimation of the dissociation rate constant. Test compounds were delivered in DMSO at a concentration of 10 mM and a digital dispenser HP D300 was used to set up the compound concentration series using 6 concentrations. The tested concentrations have been 30, 100, 300, 1000, 3000 and 10000 nM. Prior to injecting any compound, the surfaces were equilibrated by injecting running buffer over them in three separate pulses. The data collection rate was set to 10 Hz.
The raw sensorgrams of the compound injections were first subjected to reference subtraction (subtracting the signal from flow channel 1 and/or 3 from the signal from channels 2 and/or 4 respectively) and then blank subtraction (subtracting the signal from injecting DMSO controls from the reference subtracted data). The resulting double-referenced sensorgrams were then fitted using a 1:1 binding interaction model using the manufactures software package to extract kinetic- and affinity data. Active compounds have been defined by creating a detectable binding signal at the highest compound concentration ([…]) of 3 RUs. Kinetic- and affinity data on active compounds are only provided for those compounds where the binding signal at the highest compound concentration ([…]) is 50% of the theoretical maximum binding signal for a 1:1 binding interaction (Rmax, typically between 15-20 RUs) in order to enable a proper fitting of the data.

Sequence of PCSK9 (Q8NBP7 with tags, fused parts or gaps V474I/G670E): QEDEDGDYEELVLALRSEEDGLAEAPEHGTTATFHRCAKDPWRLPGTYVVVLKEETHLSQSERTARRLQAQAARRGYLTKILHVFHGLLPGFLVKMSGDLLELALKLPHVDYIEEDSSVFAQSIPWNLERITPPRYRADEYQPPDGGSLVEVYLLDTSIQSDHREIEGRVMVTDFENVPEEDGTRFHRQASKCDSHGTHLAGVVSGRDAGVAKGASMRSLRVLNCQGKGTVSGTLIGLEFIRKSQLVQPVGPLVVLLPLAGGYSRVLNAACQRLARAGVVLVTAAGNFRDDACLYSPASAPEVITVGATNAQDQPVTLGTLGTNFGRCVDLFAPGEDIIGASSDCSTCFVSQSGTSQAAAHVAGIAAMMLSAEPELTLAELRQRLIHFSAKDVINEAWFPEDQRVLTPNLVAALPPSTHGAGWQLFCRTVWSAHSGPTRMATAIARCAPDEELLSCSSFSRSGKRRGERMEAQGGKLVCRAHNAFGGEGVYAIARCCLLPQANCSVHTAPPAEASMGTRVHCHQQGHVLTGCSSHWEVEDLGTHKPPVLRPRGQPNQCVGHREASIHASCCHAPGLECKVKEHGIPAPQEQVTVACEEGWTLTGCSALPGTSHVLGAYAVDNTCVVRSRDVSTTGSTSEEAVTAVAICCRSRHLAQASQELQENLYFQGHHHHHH

Work on `Cc1cccn(-c2ccc(N[C@H]3CC[C@H](Nc4cnc(Cl)cn4)C3)nc2)c1=O` [Example 24, 6′-(((1S,3S)-3-((5-Chloropyrazin-2-yl)amino)cyclopentyl)amino)-3-methyl-2H-[1,3′-bipyridin]-2-one] yielded an IC50 (PCSK9) of 4.3 nM, an IC50 [1] of 20500 nM and a Kd (human PCSK9) of 4 nM.

Compound `Cn1c(=O)n(-c2ccc(N[C@H]3CC[C@H](Nc4cnc(Cl)cn4)C3)nc2)c2ccccc21` [Example 27, 1-(6-(((1S,3S)-3-((5-Chloropyrazin-2-yl)amino)cyclopentyl)amino)pyridin-3-yl)-3-methyl-1,3-dihydro-2H-benzo[d]imidazol-2-one] has an IC50 (PCSK9) of 1.7 nM, an IC50 [1] of 6350 nM and a Kd (human PCSK9) of 3.1 nM.

`O=c1ccc(-c2ccc(F)cc2)cn1-c1ccc(N[C@H]2CC[C@H](Nc3cnc(Cl)cn3)C2)nc1` [Example 32, 6′-(((1S,3S)-3-((5-Chloropyrazin-2-yl)amino)cyclopentyl)amino)-5-(4-fluorophenyl)-2H-[1,3′-bipyridin]-2-one] was tested, and the IC50 (PCSK9) was 7.9 nM, the IC50 [1] was 3500 nM and the Kd (human PCSK9) was 20 nM.

In the case of `O=C(O)c1ccc(=O)n(-c2ccc(N[C@H]3CC[C@H](Nc4cnc(Cl)cn4)C3)nc2)c1` [Example 33, 6′-(((1S,3S)-3-((5-Chloropyrazin-2-yl)amino)cyclopentyl)amino)-2-oxo-2H-[1,3′-bipyridine]-5-carboxylic acid], the IC50 (PCSK9) is reported as 12 nM, the IC50 [1] is reported as > 40000 nM and the Kd (human PCSK9) is reported as 13 nM.

For `O=c1ccc2ccccc2n1-c1ccc(N[C@H]2CC[C@H](Nc3cnc(Cl)cn3)C2)nc1` [Example 35, 1-(6-(((1S,3S)-3-((5-Chloropyrazin-2-yl)amino)cyclopentyl)amino)pyridin-3-yl)quinolin-2 (1H)-one], the IC50 (PCSK9) was 2 nM, the IC50 [1] was 4700 nM and the Kd (human PCSK9) was 3 nM.

With `COc1cccn(-c2ccc(N[C@H]3CC[C@H](Nc4cnc(C)cn4)C3)nc2)c1=O` [Example 36, 3-Methoxy-6′-(((1S,3S)-3-((5-methylpyrazin-2-yl)amino)cyclopentyl)amino)-2H-[1,3′-bipyridin]-2-one] the IC50 (PCSK9) was 4.1 nM, the IC50 [1] was > 40000 nM and the Kd (human PCSK9) was 5.3 nM.

With `Cc1cnc(N[C@H]2CC[C@H](Nc3ccc(-n4c(=O)ccc5cccnc54)cn3)C2)cn1` [Example 37, 1-(6-(((1S,3S)-3-((5-Methylpyrazin-2-yl)amino)cyclopentyl)amino)pyridin-3-yl)-1,8-naphthyridin-2(1 H)-one] the IC50 (PCSK9) was 6.5 nM, the IC50 [1] was > 40000 nM and the Kd (human PCSK9) was 5.5 nM.

In the case of `Cc1cnc(N[C@H]2CC[C@H](Nc3ccc(-n4c(=O)n(C)c5cccnc54)cn3)C2)cn1` [Example 42, 1-Methyl-3-(6-(((1S,3S)-3-((5-methylpyrazin-2-yl)amino)cyclopentyl)amino)pyridin-3-yl)-1,3-dihydro-2H-imidazo[4,5-b]pyridin-2-one], the IC50 (PCSK9) is reported as 5.8 nM, the IC50 [1] is reported as > 40000 nM and the Kd (human PCSK9) is reported as 5 nM.

For `Cc1cnc(N[C@H]2CC[C@H](Nc3ccc(-n4cccc(C)c4=O)cn3)C2)cn1` [Example 44, 3-Methyl-6′-(((1S,3S)-3-((5-methylpyrazin-2-yl)amino)cyclopentyl)amino)-2H-[1,3′-bipyridin]-2-one], the IC50 (PCSK9) was 5.5 nM, the IC50 [1] was > 40000 nM and the Kd (human PCSK9) was 4.5 nM.

Compound `Cc1cnc(N[C@H]2CC[C@H](Nc3ccc(-n4c(=O)n(C)c5ccccc54)cn3)C2)cn1` [Example 45, 1-Methyl-3-(6-(((1S,3S)-3-((5-methylpyrazin-2-yl)amino)cyclopentyl)amino)pyridin-3-yl)-1,3-dihydro-2H-benzo[d]imidazol-2-one] has an IC50 (PCSK9) of 1.5 nM, an IC50 [1] of 23100 nM and a Kd (human PCSK9) of 1.5 nM.

Compound `Cc1cnc(N[C@H]2CC[C@H](Nc3ccc(-n4c(=O)[nH]c5ccccc54)cn3)C2)cn1` [Example 46, 1-(6-(((1S,3S)-3-((5-Methylpyrazin-2-yl)amino)cyclopentyl)amino)pyridin-3-yl)-1,3-dihydro-2H-benzo[d]imidazol-2-one] has an IC50 (PCSK9) of 3 nM, an IC50 [1] of 33000 nM and a Kd (human PCSK9) of 4.7 nM.

For `Cc1cnc(N[C@H]2CC[C@H](Nc3ccc(-n4cccc(Cl)c4=O)cn3)C2)cn1` [Example 47, 3-Chloro-6′-(((1S,3S)-3-((5-methylpyrazin-2-yl)amino)cyclopentyl)amino)-2H-[1,3′-bipyridin]-2-one], the IC50 (PCSK9) was 2.1 nM, the IC50 [1] was > 40000 nM and the Kd (human PCSK9) was 1.9 nM.

`Cn1c(=O)n(-c2ccc(N[C@H]3CC[C@H](Nc4cnc(OC(F)F)cn4)C3)nc2)c2ccccc21` [Example 82, 1-(6-(((1S,3S)-3-((5-(Difluoromethoxy)pyrazin-2-yl)amino)cyclopentyl)amino)pyridin-3-yl)-3-methyl-1,3-dihydro-2H-benzo[d]imidazol-2-one] gave an IC50 (PCSK9) of 2.5 nM, an IC50 [1] of 5500 nM and a Kd (human PCSK9) of 4.1 nM.

For `COc1cccn(-c2ccc(N[C@H]3CC[C@H](Nc4cnc(OC(F)F)cn4)C3)nc2)c1=O` [Example 94, 6′-(((1S,3S)-3-((5-(Difluoromethoxy)pyrazin-2-yl)amino)cyclopentyl)amino)-3-methoxy-2H-[1,3′-bipyridin]-2-one], the IC50 (PCSK9) was 7.7 nM, the IC50 [1] was 17500 nM and the Kd (human PCSK9) was 12 nM.

In the case of `Cc1cnc(N[C@H]2CC[C@H](Nc3ccc(-n4cccc(C#N)c4=O)cn3)C2)cn1` [Example 103, 6′-(((1S,3S)-3-((5-Methylpyrazin-2-yl)amino)cyclopentyl)amino)-2-oxo-2H-[1,3′-bipyridine]-3-carbonitrile], the IC50 (PCSK9) is reported as 5.7 nM, the IC50 [1] is reported as > 40100 nM and the Kd (human PCSK9) is reported as 4.7 nM.

In the case of `COc1cccn(-c2ccc(N[C@H]3CC[C@H](Nc4cnc(C5CC5)cn4)C3)nc2)c1=O` [Example 106, 6′-(((1S,3S)-3-((5-Cyclopropylpyrazin-2-yl)amino)cyclopentyl)amino)-3-methoxy-2H-[1,3′-bipyridin]-2-one], the IC50 (PCSK9) is reported as 4.5 nM, the IC50 [1] is reported as > 40000 nM and the Kd (human PCSK9) is reported as 3 nM.

In the case of `COc1ccnn(-c2ccc(N[C@H]3CC[C@H](Nc4cnc(C)cn4)C3)nc2)c1=O` [Example 226, 4-Methoxy-2-(6-(((1S,3S)-3-((5-methylpyrazin-2-yl)amino)cyclopentyl)amino)pyridin-3-yl)pyridazin-3 (2H)-one], the IC50 (PCSK9) is reported as 4 nM, the IC50 [1] is reported as > 40100 nM and the Kd (human PCSK9) is reported as 5.6 nM.

— patent US20240217951A1, “PCSK9 INHIBITORS AND METHODS OF USE THEREOF” (AstraZeneca AB, priority 2022, published 2024)
